Measured values reported in patent publication US8735439B2, “Chlorin e6-folic acid conjugate, preparation method thereof, and a pharmaceutical composition for the treatment of cancer comprising the same” (Diatech Korea Co., Ltd., priority 2009, dated 2014).

Tests used:
[1] = tested on: HeLa cell culture; test: Phototoxicity (photodynamic activity), 3.5 h incubation, 3.3 joule/cm^2; assay type: cell-based; set-up: number of HELA cells relative to the control: unit not given here; settings: photoexposure 3.3 joule/cm^2; for number of HELA cells relative to the control: 3.5 hours incubation
Procedure: To examine the photodynamic effects of a photosensitizer on a HeLa cell culture, the photosensitizer solution was added to the nutrient media at a final concentration of 0.1, 0.5, 1.0, 5.0 or 10 mcg/ml on day 3 after transplanting the cell culture into flasks. The flasks were wrapped with a light protecting cover, and incubated at 37° C. for 3.5 hours. Then, the cells were washed with Hank's solution, and exposed on ice by a laser medical device “LD 680-2000” (wavelength: 670-690 nm) at a dose of 3.3 joule/cm^2. After 20-24 hours, the available cell monolayer was dispersed using a 0.02%-Versene solution, and the number of tumor cells was calculated in Goriaev's chamber. For each point, 3 flasks were used.

[2] = tested on: Hela cells; test: Competition assay with exogenous folic acid, uptake in Hela cells; assay type: cell-based; settings: 4 μM/l folic acid, 24 hours
From the text: Then, the sample was centrifuged, the supernatant was taken, and the pellet was rewashed with cooled Hank's solution. The obtained pellet was again transferred into Hank's solution.

[3] = Quenching of excited triplet states by molecular oxygen; assay type: physicochemical
From the text: The data presented in Table 2 supports the analysis of specific features of quenching of excited triplet states of chlorin e6-conjugate by molecular oxygen in solutions and biological systems.

[4] = tested on: Hela cells; test: Accumulation in Hela cells; assay type: cell-based; settings: for concentration in Hela cells: 2×10^−5 M/l, 37° C.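 As to concentration in Hela cells: measured as suspension fluorescence intensity at excitation 405 nm and emission 665 nm.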
Procedure: The cellular accumulation and the targeted delivery of the photoactive compounds were investigated using Hela cells, which is one of the numerous tumor cell types that overexpress folate receptors.
Cells were cultivated for 3 days in medium 199, and transferred to Hank's solution/medium 199 (9/1). After 3 hours, the cell were collected by trypsin treatment from the substrate and placed in Hank's solution (10^5 ? /ml). To cell suspensions, chlorin e6 conjugates were added at a concentration of 2×10^−5 M/l, and incubated at 37° C. After 1, 5, 10, 15, and 24 hours, the samples were centrifuged, the pellet was washed with the cooled Hank's solution, and transferred to Hank's solution at a concentration being equal to that in the initial suspension.

[5] = tested on: Hela cells; test: Phototoxicity, 24 h incubation, 1.5-15 joule/cm^2; assay type: cell-based; settings: 670-690 nm
Procedure: In other experiment, the cells were incubated with photosensitizers at 37° C. for 24 hours, and irradiated by exposed on ice by a laser medical device “LD 680-2000” (wavelength of 670-690 nm) in a dose of 1.5-15 joule/cm^2.

[6] = Generation of singlet oxygen (luminescence at 1270 nm); assay type: physicochemical
Procedure: Photoresponse of this process (φΔ) was measured by a relative method through integral intensity of singlet oxygen luminescence at a wavelength of 1270 nm. Excitation was conducted at a wavelength of 531 nm (pulse energy 4 microJ, frequency 1 kHz). Tests were made in air saturated buffer solutions at room temperature. […] The φΔ in D2O was considered as 0.7.
To analyze kinetic curves of singlet oxygen luminescence, the following function was used:
wherein A is a coefficient depending on initial concentrations of interacted reagents, and k1 and k2 are constants of luminescence signal increase and extinction, respectively.
In the case when the deactivation rate constant Kτ of the photosensitizer triplet state exceeds the deactivation rate constant KΔ of the molecular oxygen […] state, the constant of increase k1 corresponds to Kτ, and constant of extinction k2 corresponds to KΔ. In the case of Kτ<KΔ, inversion of the kinetics of singlet oxygen luminescence occurs. In this case, k2=Kτ and k1=KΔ. […] Thus, based on kinetic data, the life times of singlet oxygen and triplet state can be calculated.

[7] = tested on: sarcoma M-1; test: Growth of sarcoma M-1 after PDT (tumor volume); assay type: in vivo, rats
Procedure: For this purpose, a laser medical instrument “ ? 680-2000” (BIOSPEC, Moscow) was used to perform the exposure at a wavelength of 670 nm in a dose of 100 J/cm^2. The power density was 0.51 W/cm^2, the output power was 0.4 W, and the spot light diameter was 1 cm. Time of exposure was […]. Monitoring over radiating power was conducted by a universal power meter included in the laser device “ ? 4680-2000”.

[8] = air saturated buffer solution, room temperature

Substance: [γ-(6-aminohexyl)folic acid]-chlorin e6 [chlorin e6 conjugate]
- number of HELA cells relative to the control ([1]; 0.1 mcg/ml): 65.1
- number of HELA cells relative to the control ([1]; 0.5 mcg/ml): 42.3
- number of HELA cells relative to the control ([1]; 1.0 mcg/ml): 12.6
- inhibition of proliferation of Hela cells ([1]; 5-10 mcg/ml): fully inhibited the proliferation
- number of HELA cells relative to the control ([1]; 5.0 mcg/ml): 0.1
- effect of free folic acid on uptake in Hela cells [2]: significantly reduced the uptake
- bi-molecular rate constant for O2 quenching of the triplet excited state ([3]; Pyridine): 4.5×10^9 M^−1 c^−1
- bi-molecular rate constant for O2 quenching of the triplet excited state ([3]; buffer solution): 1.5×10^9 M^−1 c^−1
- bi-molecular rate constant for O2 quenching of the triplet excited state ([3]; lipid bilayer): 9×10^9 M^−1 c^−1
- bi-molecular rate constant for O2 quenching of the triplet excited state ([3]; micellar complex (Triton X-100), upper limit): 1.5×10^9 M^−1 c^−1
- bi-molecular rate constant for O2 quenching of the triplet excited state ([3]; pigment-protein complex, upper limit): 2.5×10^9 M^−1 c^−1
- binding with cells over time ([4]; Hela cells): increases linearly over 20 hours
- accumulation compared with cellular uptake of free chlorin e6 ([4]; Hela cells, after 6 hr incubation): distinctly higher
- cellular uptake relative to free chlorin e6 ([4]; Hela cells, after 24 hr incubation, on average, listed as chlorin e6-folic acid conjugate): about 10 fold
- concentration in Hela cells ([4]; incubation 1 hour): 0.40 relative units/10^4 cl.
- concentration in Hela cells ([4]; incubation 5 hours): 1.80 relative units/10^4 cl.
- concentration in Hela cells ([4]; incubation 10 hours): 2.50 relative units/10^4 cl.
- concentration in Hela cells ([4]; incubation 15 hours): 12.5 relative units/10^4 cl.
- concentration in Hela cells ([4]; incubation 24 hours): 15.0 relative units/10^4 cl.
- phototoxicity in survival test [5]: improved the photosensitivity
- φΔ (efficiency of ^1O2 generation) ([6]; H2O, pH 8.1): 0.70
- φΔ (efficiency of ^1O2 generation) ([6]; HSA, H2O, pH 8.1): 0.63-
- φΔ (efficiency of ^1O2 generation) ([6]; Pyridine): 0.68
- φΔ (efficiency of ^1O2 generation) ([6]; Triton X-100): 0.80
- τt (life time of triplet state) from kinetic curves of singlet oxygen luminescence [6, 8]: 2.0±0.2 microsec.
- τΔ (life time of singlet oxygen) from kinetic curves of singlet oxygen luminescence [6, 8]: 3.6±0.2 microsec.
- photoresponse of photosensitized formation of singlet oxygen ([6]; pH 6.0): 0.52
- photoresponse of photosensitized formation of singlet oxygen ([6]; pH 8.1): 0.7
- Growth inhibition rate of sarcoma M-1 in volume to the control ([7]; 2.5 mg/100 g + 100 J/cm^2 for 1 h, day 7): 47.5%
- Growth inhibition rate of sarcoma M-1 in volume to the control ([7]; 2.5 mg/100 g + 100 J/cm^2 for 1 h, day 10): 79.4%
- Growth inhibition rate of sarcoma M-1 in volume to the control ([7]; 2.5 mg/100 g + 100 J/cm^2 for 1 h, day 12): 87.6%
- Growth inhibition rate of sarcoma M-1 in volume to the control ([7]; 2.5 mg/100 g + 100 J/cm^2 for 1 h, day 14): 89.8%
- Growth inhibition rate of sarcoma M-1 in volume to the control ([7]; 2.5 mg/100 g + 100 J/cm^2 for 1 h, day 17): 94.8%
- Growth inhibition rate of sarcoma M-1 in volume to the control ([7]; 2.5 mg/100 g + 100 J/cm^2 for 1 h, day 19): 94.1%
- Growth inhibition rate of sarcoma M-1 in volume to the control ([7]; 2.5 mg/100 g + 100 J/cm^2 for 1 h, day 21): 94.2%
- Growth inhibition rate of sarcoma M-1 in volume to the control ([7]; 2.5 mg/100 g + 100 J/cm^2 for 1 h, day 24): 93.6%
- volume of sarcoma M-1 ([7]; 2.5 mg/kg + 100 J/cm^2 for 1 h, day 7 after tumor transplant): 0.25 ± 0.03 cm^3
- volume of sarcoma M-1 ([7]; 2.5 mg/kg + 100 J/cm^2 for 1 h, day 10): 0.28 ± 0.03 cm^3
- volume of sarcoma M-1 ([7]; 2.5 mg/kg + 100 J/cm^2 for 1 h, day 12): 0.34 ± 0.06 cm^3
- volume of sarcoma M-1 ([7]; 2.5 mg/kg + 100 J/cm^2 for 1 h, day 14): 0.41 ± 0.09 cm^3
- volume of sarcoma M-1 ([7]; 2.5 mg/kg + 100 J/cm^2 for 1 h, day 17): 0.46 ± 0.11 cm^3
- volume of sarcoma M-1 ([7]; 2.5 mg/kg + 100 J/cm^2 for 1 h, day 19): 0.69 ± 0.27 cm^3
- volume of sarcoma M-1 ([7]; 2.5 mg/kg + 100 J/cm^2 for 1 h, day 21): 0.96 ± 0.38 cm^3
- volume of sarcoma M-1 ([7]; 2.5 mg/kg + 100 J/cm^2 for 1 h, day 24): 1.19 ± 0.48 cm^3
- Growth inhibition rate of sarcoma M-1 in volume to the control ([7]; 5 mg/100 g + 100 J/cm^2 for 1 h, day 7): 36.9%
- Growth inhibition rate of sarcoma M-1 in volume to the control ([7]; 5 mg/100 g + 100 J/cm^2 for 1 h, day 10): 77.9%
- Growth inhibition rate of sarcoma M-1 in volume to the control ([7]; 5 mg/100 g + 100 J/cm^2 for 1 h, day 12): 89.1%
- Growth inhibition rate of sarcoma M-1 in volume to the control ([7]; 5 mg/100 g + 100 J/cm^2 for 1 h, day 14): 92.6%
- Growth inhibition rate of sarcoma M-1 in volume to the control ([7]; 5 mg/100 g + 100 J/cm^2 for 1 h, day 17): 95.8%
- Growth inhibition rate of sarcoma M-1 in volume to the control ([7]; 5 mg/100 g + 100 J/cm^2 for 1 h, day 19): 95.9%
- Growth inhibition rate of sarcoma M-1 in volume to the control ([7]; 5 mg/100 g + 100 J/cm^2 for 1 h, day 21): 96.9%
- Growth inhibition rate of sarcoma M-1 in volume to the control ([7]; 5 mg/100 g + 100 J/cm^2 for 1 h, day 24): 97.1%
- volume of sarcoma M-1 ([7]; 5 mg/kg + 100 J/cm^2 for 1 h, day 7 after tumor transplant): 0.29 ± 0.02 cm^3
- volume of sarcoma M-1 ([7]; 5 mg/kg + 100 J/cm^2 for 1 h, day 10): 0.300 ± .03 cm^3
- volume of sarcoma M-1 ([7]; 5 mg/kg + 100 J/cm^2 for 1 h, day 12): 0.30 ± 0.03 cm^3
- volume of sarcoma M-1 ([7]; 5 mg/kg + 100 J/cm^2 for 1 h, day 14): 0.30 ± 0.03 cm^3
- volume of sarcoma M-1 ([7]; 5 mg/kg + 100 J/cm^2 for 1 h, day 17): 0.37 ± 0.05 cm^3
- volume of sarcoma M-1 ([7]; 5 mg/kg + 100 J/cm^2 for 1 h, day 19): 0.47 ± 0.11 cm^3
- volume of sarcoma M-1 ([7]; 5 mg/kg + 100 J/cm^2 for 1 h, day 21): 0.50 ± 0.14 cm^3
- volume of sarcoma M-1 ([7]; 5 mg/kg + 100 J/cm^2 for 1 h, day 24): 0.54 ± 0.17 cm^3
- Growth inhibition rate of sarcoma M-1 in volume to the control ([7]; 10 mg/100 g + 100 J/cm^2 for 1 h, day 7): 56.5%
- Growth inhibition rate of sarcoma M-1 in volume to the control ([7]; 10 mg/100 g + 100 J/cm^2 for 1 h, day 10): 86.0%
- Growth inhibition rate of sarcoma M-1 in volume to the control ([7]; 10 mg/100 g + 100 J/cm^2 for 1 h, day 12): 93.8%
- Growth inhibition rate of sarcoma M-1 in volume to the control ([7]; 10 mg/100 g + 100 J/cm^2 for 1 h, day 14): 95.8%
- Growth inhibition rate of sarcoma M-1 in volume to the control ([7]; 10 mg/100 g + 100 J/cm^2 for 1 h, day 17): 98.1%
- Growth inhibition rate of sarcoma M-1 in volume to the control ([7]; 10 mg/100 g + 100 J/cm^2 for 1 h, day 19): 95.2%
- Growth inhibition rate of sarcoma M-1 in volume to the control ([7]; 10 mg/100 g + 100 J/cm^2 for 1 h, day 21): 98.8%
- Growth inhibition rate of sarcoma M-1 in volume to the control ([7]; 10 mg/100 g + 100 J/cm^2 for 1 h, day 24): 98.9%
- volume of sarcoma M-1 ([7]; 10 mg/kg + 100 J/cm^2 for 1 h, day 7 after tumor transplant): 0.20 ± 0.03 cm^3
- volume of sarcoma M-1 ([7]; 10 mg/kg + 100 J/cm^2 for 1 h, day 10): 0.19 ± 0.04 cm^3
- volume of sarcoma M-1 ([7]; 10 mg/kg + 100 J/cm^2 for 1 h, day 12): 0.17 ± 0.03 cm^3
- volume of sarcoma M-1 ([7]; 10 mg/kg + 100 J/cm^2 for 1 h, day 14): 0.17 ± 0.03 cm^3
- volume of sarcoma M-1 ([7]; 10 mg/kg + 100 J/cm^2 for 1 h, day 17): 0.17 ± 0.03 cm^3
- volume of sarcoma M-1 ([7]; 10 mg/kg + 100 J/cm^2 for 1 h, day 19): 0.17 ± 0.03 cm^3
- volume of sarcoma M-1 ([7]; 10 mg/kg + 100 J/cm^2 for 1 h, day 21): 0.20 ± 0.03 cm^3
- volume of sarcoma M-1 ([7]; 10 mg/kg + 100 J/cm^2 for 1 h, day 24): 0.20 ± 0.03 cm^3
- inhibition rate of tumor volumetric growth compared to the control ([7]; rats with sarcoma M-1, monitored for 24 days after PDT): 86.34-99.1%
